Source: PubChem BioAssay AID1963830 (Molecular Pharmacology Branch, DTP, NCI, 2024)

Test system: 922993-354-T-J3-PDC complex spheroid viability
Assay: Anticancer human tumor 922993-354-T-J3-PDC patient-derived endometrial carcinoma cell line growth inhibition [POLQ]
Conditions: for IC50: curve of first compound; for viability, T/C: stronger effect = lower value
Summary of the method: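 Complex spheroid viability model combining PDC tumour cells with endothelial (HUVEC) and MSC stromal cells. Novobiocin, ART-558 or RP6685 were tested singly and in combination with standard and investigational anticancer drugs. Each was titrated in half-log steps from near clinical Cmax, or from 10 microM where Cmax was unknown.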

[1] = second compound 0.0316 µM, first compound 0.0316 µM
[2] = second compound 0.0316 µM, first compound 0.1 µM
[3] = second compound 0.0316 µM, first compound 0.316 µM
[4] = second compound 0.0316 µM, first compound 1 µM
[5] = second compound 0.0316 µM, first compound 3.16 µM
[6] = second compound 0.0316 µM, first compound 10 µM
[7] = second compound 0.1 µM, first compound 0.0316 µM
[8] = second compound 0.1 µM, first compound 0.1 µM
[9] = second compound 0.1 µM, first compound 0.316 µM
[10] = second compound 0.1 µM, first compound 1 µM
[11] = second compound 0.1 µM, first compound 3.16 µM
[12] = second compound 0.1 µM, first compound 10 µM
[13] = second compound 0.316 µM, first compound 0.0316 µM
[14] = second compound 0.316 µM, first compound 0.1 µM
[15] = second compound 0.316 µM, first compound 0.316 µM
[16] = second compound 0.316 µM, first compound 1 µM
[17] = second compound 0.316 µM, first compound 3.16 µM
[18] = second compound 0.316 µM, first compound 10 µM
[19] = second compound 1 µM, first compound 0.0316 µM
[20] = second compound 1 µM, first compound 0.1 µM
[21] = second compound 1 µM, first compound 0.316 µM
[22] = second compound 1 µM, first compound 1 µM
[23] = second compound 1 µM, first compound 3.16 µM
[24] = second compound 1 µM, first compound 10 µM
[25] = second compound 3.16 µM, first compound 0.0316 µM
[26] = second compound 3.16 µM, first compound 0.1 µM
[27] = second compound 3.16 µM, first compound 0.316 µM
[28] = second compound 3.16 µM, first compound 1 µM
[29] = second compound 3.16 µM, first compound 3.16 µM
[30] = second compound 3.16 µM, first compound 10 µM
[31] = second compound 10 µM, first compound 0.0316 µM
[32] = second compound 10 µM, first compound 0.1 µM
[33] = second compound 10 µM, first compound 0.316 µM
[34] = second compound 10 µM, first compound 1 µM
[35] = second compound 10 µM, first compound 3.16 µM
[36] = second compound 10 µM, first compound 10 µM
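Further: spheroids exposed to the agents for one week.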
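Wherever viability, T/C is given: 100% = DMSO vehicle control wells.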

CCCS(=O)(=O)Nc1ccc(F)c(C(=O)c2c[nH]c3ncc(-c4ccc(Cl)cc4)cc23)c1F + COC1C(OC(N)=O)C(O)C(Oc2ccc3c(O)c(NC(=O)c4ccc(O)c(CC=C(C)C)c4)c(=O)oc3c2C)OC1(C)C
IC50 (second compound 0.0316 µM): > 10 µM | IC50 (second compound 0.1 µM): > 10 µM | IC50 (second compound 0.316 µM): > 10 µM | IC50 (second compound 1 µM): > 10 µM | IC50 (second compound 3.16 µM): > 10 µM | IC50 (second compound 10 µM): > 10 µM | viability, T/C [1]: 98.7% | viability, T/C [2]: 97% | viability, T/C [3]: 97.3% | viability, T/C [4]: 110% | viability, T/C [5]: 106% | viability, T/C [6]: 68.6% | viability, T/C [7]: 102% | viability, T/C [8]: 103% | viability, T/C [9]: 103% | viability, T/C [10]: 110% | viability, T/C [11]: 102% | viability, T/C [12]: 83.6% | viability, T/C [13]: 112% | viability, T/C [14]: 102% | viability, T/C [15]: 107% | viability, T/C [16]: 109% | viability, T/C [17]: 93% | viability, T/C [18]: 67.1% | viability, T/C [19]: 93.6% | viability, T/C [20]: 103% | viability, T/C [21]: 101% | viability, T/C [22]: 103% | viability, T/C [23]: 90.5% | viability, T/C [24]: 86.8% | viability, T/C [25]: 94.7% | viability, T/C [26]: 103% | viability, T/C [27]: 95.9% | viability, T/C [28]: 94.1% | viability, T/C [29]: 101% | viability, T/C [30]: 73.8% | viability, T/C [31]: 90% | viability, T/C [32]: 84.3% | viability, T/C [33]: 79.8% | viability, T/C [34]: 85.1% | viability, T/C [35]: 90.4% | viability, T/C [36]: 59.5%

CCc1cc2c(N3CCc4c(cc(Cn5ccnc5)cc4-c4cn(C)nc4C(F)(F)F)C3=O)ccnc2c(OC)n1 + COC1C(OC(N)=O)C(O)C(Oc2ccc3c(O)c(NC(=O)c4ccc(O)c(CC=C(C)C)c4)c(=O)oc3c2C)OC1(C)C
IC50 (second compound 0.0316 µM): > 10 µM | IC50 (second compound 0.1 µM): > 10 µM | IC50 (second compound 0.316 µM): > 10 µM | IC50 (second compound 1 µM): > 10 µM | IC50 (second compound 3.16 µM): > 10 µM | IC50 (second compound 10 µM): > 10 µM | viability, T/C [1]: 104% | viability, T/C [2]: 110% | viability, T/C [3]: 101% | viability, T/C [4]: 102% | viability, T/C [5]: 96.2% | viability, T/C [6]: 71.5% | viability, T/C [7]: 108% | viability, T/C [8]: 102% | viability, T/C [9]: 97.9% | viability, T/C [10]: 109% | viability, T/C [11]: 97.1% | viability, T/C [12]: 79.8% | viability, T/C [13]: 104% | viability, T/C [14]: 101% | viability, T/C [15]: 102% | viability, T/C [16]: 97.3% | viability, T/C [17]: 86.9% | viability, T/C [18]: 79.6% | viability, T/C [19]: 97.4% | viability, T/C [20]: 101% | viability, T/C [21]: 104% | viability, T/C [22]: 101% | viability, T/C [23]: 90% | viability, T/C [24]: 76.6% | viability, T/C [25]: 88.1% | viability, T/C [26]: 96.5% | viability, T/C [27]: 100% | viability, T/C [28]: 85.2% | viability, T/C [29]: 89.2% | viability, T/C [30]: 70.4% | viability, T/C [31]: 84% | viability, T/C [32]: 82.8% | viability, T/C [33]: 105% | viability, T/C [34]: 91% | viability, T/C [35]: 93.9% | viability, T/C [36]: 68.3%

COc1ccc([C@@H](O)c2cc(-c3ncnc4cc(N5CCOCC5)ccc34)c(F)cc2Cl)nn1 + COC1C(OC(N)=O)C(O)C(Oc2ccc3c(O)c(NC(=O)c4ccc(O)c(CC=C(C)C)c4)c(=O)oc3c2C)OC1(C)C
IC50 (second compound 0.0316 µM): > 10 µM | IC50 (second compound 0.1 µM): > 10 µM | IC50 (second compound 0.316 µM): > 10 µM | IC50 (second compound 1 µM): > 10 µM | IC50 (second compound 3.16 µM): > 10 µM | IC50 (second compound 10 µM): > 10 µM | viability, T/C [1]: 95.1% | viability, T/C [2]: 81.3% | viability, T/C [3]: 102% | viability, T/C [4]: 94.9% | viability, T/C [5]: 85.2% | viability, T/C [6]: 58.2% | viability, T/C [7]: 105% | viability, T/C [8]: 92.8% | viability, T/C [9]: 102% | viability, T/C [10]: 79.6% | viability, T/C [11]: 77.8% | viability, T/C [12]: 72.9% | viability, T/C [13]: 110% | viability, T/C [14]: 97% | viability, T/C [15]: 96% | viability, T/C [16]: 85.2% | viability, T/C [17]: 76.6% | viability, T/C [18]: 72.2% | viability, T/C [19]: 96% | viability, T/C [20]: 110% | viability, T/C [21]: 99.5% | viability, T/C [22]: 98.1% | viability, T/C [23]: 85.8% | viability, T/C [24]: 74.8% | viability, T/C [25]: 84.4% | viability, T/C [26]: 93.1% | viability, T/C [27]: 101% | viability, T/C [28]: 87.9% | viability, T/C [29]: 93.6% | viability, T/C [30]: 69.2% | viability, T/C [31]: 86.1% | viability, T/C [32]: 90% | viability, T/C [33]: 107% | viability, T/C [34]: 83.8% | viability, T/C [35]: 88.6% | viability, T/C [36]: 69.8%

COc1cccc(OCCCN)c1-c1cc(Nc2cnc(C#N)cn2)n[nH]1 + COC1C(OC(N)=O)C(O)C(Oc2ccc3c(O)c(NC(=O)c4ccc(O)c(CC=C(C)C)c4)c(=O)oc3c2C)OC1(C)C
IC50 (second compound 0.0316 µM): 0.204 µM | IC50 (second compound 0.1 µM): 0.187 µM | IC50 (second compound 0.316 µM): 0.175 µM | IC50 (second compound 1 µM): 0.159 µM | IC50 (second compound 3.16 µM): 0.159 µM | IC50 (second compound 10 µM): 0.16 µM | viability, T/C (second compound 0.0316 µM, first compound 0.00316 µM): 92.4% | viability, T/C (second compound 0.0316 µM, first compound 0.01 µM): 94% | viability, T/C [1]: 94.3% | viability, T/C [2]: 91% | viability, T/C [3]: 24.6% | viability, T/C [4]: 9.14% | viability, T/C (second compound 0.1 µM, first compound 0.00316 µM): 99.6% | viability, T/C (second compound 0.1 µM, first compound 0.01 µM): 96.5% | viability, T/C [7]: 102% | viability, T/C [8]: 87.2% | viability, T/C [9]: 18.6% | viability, T/C [10]: 8.7% | viability, T/C (second compound 0.316 µM, first compound 0.00316 µM): 100% | viability, T/C (second compound 0.316 µM, first compound 0.01 µM): 92.2% | viability, T/C [13]: 97.2% | viability, T/C [14]: 84.6% | viability, T/C [15]: 13.6% | viability, T/C [16]: 9.43% | viability, T/C (second compound 1 µM, first compound 0.00316 µM): 108% | viability, T/C (second compound 1 µM, first compound 0.01 µM): 94% | viability, T/C [19]: 78.9% | viability, T/C [20]: 75.3% | viability, T/C [21]: 12.9% | viability, T/C [22]: 8.85% | viability, T/C (second compound 3.16 µM, first compound 0.00316 µM): 103% | viability, T/C (second compound 3.16 µM, first compound 0.01 µM): 110% | viability, T/C [25]: 95.9% | viability, T/C [26]: 70% | viability, T/C [27]: 21.3% | viability, T/C [28]: 9.8% | viability, T/C (second compound 10 µM, first compound 0.00316 µM): 90.1% | viability, T/C (second compound 10 µM, first compound 0.01 µM): 69.7% | viability, T/C [31]: 80.1% | viability, T/C [32]: 73.4% | viability, T/C [33]: 16.1% | viability, T/C [34]: 8.31%
